In ChEMBL document CHEMBL1147473, “Synthesis of a bioprobe for elucidation of target molecule of spongean anti-malarial peroxides” (Bioorg Med Chem Lett, 2004):

Test system: Plasmodium falciparum
Test: Inhibitory concentration against Plasmodium falciparum
Type: functional, organism-based

SMILES | IC50 [nM]
COC(=O)CC1CCC(CCCCCOC(=O)NCCCC[C@@H]2CCC3NC(=O)NC32)(OC)OO1 (some centres not stated) | 910
COC(=O)CC1CCC(CCCCCOC(=O)NCCCCNC(=O)OCCOCCOC(=O)NCCCC[C@@H]2CCC3NC(=O)NC32)(OC)OO1 (some centres not stated) | 570
